{"source": "ChEMBL document CHEMBL1142100", "about": "“Hypericin activates L-type Ca2+ channels in cardiac myocytes” (J Nat Prod, 2007)", "assay_type_in_all_cases": "cell-based", "settings_in_all_cases": "Cardiac atrium", "key": {"[1]": {"tested_on": "Pelophylax lessonae", "assay": "Activity at L-type calcium channel in frog atrial myocytes assessed as increase in Sr2+ current"}, "[2]": {"tested_on": "Pelophylax lessonae", "assay": "Inhibition of PP2A in frog atrial myocytes by microscystin assay"}, "[3]": {"tested_on": "Pelophylax lessonae", "assay": "Decrease in cellular cGMP level in frog atrial myocytes at 4 uM by immunoassay", "design": "scale not given: the % may be the effect or the level left"}, "[4]": {"tested_on": "Pelophylax lessonae", "assay": "Inhibition of NOS2 in frog atrial myocytes"}}, "note": "Activity calls are given as the source filed them. The calls are words filed in the database; no cut-off is given here."}
{"smiles": "Cc1cc(O)c2c(=O)c3c(O)cc(O)c4c5c(O)cc(O)c6c(=O)c7c(O)cc(C)c8c1c2c(c34)c(c78)c65", "values": [{"measurement": "Activity", "setting": "[1]", "result": "Dose-dependent effect"}, {"measurement": "Activity", "setting": "[2]", "result": "inactive"}, {"measurement": "Activity", "setting": "[3]", "result": 69, "unit": "%"}, {"measurement": "Activity", "setting": "[4]", "result": "inactive"}]}
